Measurements taken from PMC7247818, “Demonstration of Binding Induced Structural Plasticity in a SH2 Domain” (Frontiers in Molecular Biosciences, 2020).
Where a SMILES comes first, the peptide text is derived from it.

Assays:
Settings in all cases: 10°C
[1] = biological target: T1, N-SH2 domain of PI3K, V81A variant (Homo sapiens, UniProt P27986, V402A); test: Stopped-flow binding kinetics, N-SH2 V81A
T1 construct: made in house
Description: (§1) N-SH2 wild-type and all the site-directed variants were expressed and purified as described previously ([Visconti et al., 2019]). All the mutants were obtained using a QuickChange Lightning Site-Directed Mutagenesis kit (Agilent technologies), accordingly to manufacturer instructions. Peptides with sequence TNSEDNpYVPMNPG mimicking wild-type Gab2 and TNSEDNpYVPANPG mimicking the M457A variant of Gab2 were purchased from GenScript Biotech Corporation.
(§2) Binding kinetics experiments were performed using a single-mixing SX-18 stopped-flow instrument (Applied Photophysics); all binding experiments were conducted in 50 mM Hepes pH 7.4 300 mM NaCl at 10°C. Excitation was at 280 nm and emission was collected using a […] cut-off glass filter. Pseudo-first order binding experiments were performed mixing a constant concentration of dansylated Gab2_448–460 and Gab2_448–460 M457A (1 μM) vs. N-SH2 wt and its mutants at concentrations ranging from […]. For each N-SH2 concentration, usually 5 individual traces were averaged and in all cases the fluorescence time courses obtained was satisfactorily fitted by using a single exponential equation.
(§3) One of the aims of this study is to depict the molecular details of the interaction between the N-SH2 domain of PI3K and Gab2. A powerful strategy to achieve this goal relies on perturbing the system by producing conservative site-directed variants while monitoring the effect of mutations on the association and dissociation rate constants between the interacting partners (kon and koff respectively). Thus, we designed and successfully produced 21 site-directed variants of the N-SH2 domain and challenged them vs. a peptide mimicking the region of Gab2 ranging from residue 448–460 (Gab2_448–460), containing the pY-X-X-M motif that is specifically recognized by the N-SH2 domain ([Waksman et al., 1992]; [Songyang et al., 1993]). The choise of mutations was designed in analogy to phi-value analysis methodology in protein folding studies ([Fersht and Sato, 2004]). […] To monitor binding by fluorescence, a dansyl group was added at the N-terminus of the peptide. The binding reaction was monitored by stopped-flow experiments following the change in FRET signal, taking advantage of the two Trp residues on the N-SH2 domain in positions 12 and 14 as fluorescence donor and the dansyl group on Gab2_448–460 as acceptor. The experiments were performed in pseudo-first order conditions with Gab2_448–460 at fixed concentration of 1 μM rapidly mixed vs. large excess of N-SH2 wt and its variants, ranging from 4 to 14 μM, in buffer Hepes 50 mM, NaCl 300 mM, pH 7.4, at 10°C.
(§4) with kon being the slope of the line and koff the intercept with the y-axis. Since indirect calculation of koff obtained by extrapolation is associated with high experimental error, we performed displacement experiments to directly measure koff by challenging a pre-incubated complex of dansylated Gab2_448–460 and N-SH2 domain both at the concentration of 1 μM vs. a large excess of non-dansylated Gab2_448–460 (50 μM). Kinetic parameters extracted from data together with the calculated changes in activation and equilibrium free energies are reported in Table 1. Analysis of kinetic data highlights that T48S, L51A, and L59A variations cause a detectable decrease of the affinity of the domain for Gab2_448–460 of ∼10-fold, affecting both the kon and koff. […] Since L99 residue is part of the binding pocket, this dramatic effect on the binding affinity is expected.
(§5) SH2 domains bind ligands with a phosphorylated tyrosine in their sequence. The N-SH2 domain of PI3K is known to recognize a specific consensus sequences that present a methionine in position +3 in respect to the phosphotyrosine (M457 in Gab2). […]

[2] = biological target: T2, N-SH2 domain of PI3K, L104A variant (Homo sapiens, UniProt P27986, L425A); test: Stopped-flow binding kinetics, N-SH2 L104A
T2 construct: made in house
T2 sequence (P27986 333-428 L425A): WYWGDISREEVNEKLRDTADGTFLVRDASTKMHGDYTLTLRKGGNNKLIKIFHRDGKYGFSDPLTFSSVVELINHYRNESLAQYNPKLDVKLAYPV
Description: as §1, §2, §3, §4, §5

[3] = biological target: T3, N-SH2 domain of PI3K, V22A variant (Homo sapiens, UniProt P27986, V343A); test: Stopped-flow binding kinetics, N-SH2 V22A
T3 construct: made in house
T3 sequence (P27986 333-428 V343A): as the sequence (P27986 333-428 L425A) above, with V11A, A93L counted along it
Description: as §1, §2, §3, §4, §5

N-SH2 domain of PI3K, WT = biological target: T4, N-SH2 domain of PI3K, WT (Homo sapiens, UniProt P27986); test: Stopped-flow binding kinetics, N-SH2 WT
T4 construct: made in house
T4 sequence (P27986 333-428 limits assumed): as the sequence (P27986 333-428 L425A) above, with A93L counted along it
Description: as §1, §2, §3, §4, §5

[4] = biological target: T5, N-SH2 domain of PI3K, I17V variant (Homo sapiens, UniProt P27986, I338V); test: Stopped-flow binding kinetics, N-SH2 I17V
T5 construct: made in house
T5 sequence (P27986 333-428 I338V): as the sequence (P27986 333-428 L425A) above, with I6V, A93L counted along it
Description: as §1, §2, §3, §4, §5

[5] = biological target: T6, N-SH2 domain of PI3K, L35A variant (Homo sapiens, UniProt P27986, L356A); test: Stopped-flow binding kinetics, N-SH2 L35A
T6 construct: made in house
T6 sequence (P27986 333-428 L356A): as the sequence (P27986 333-428 L425A) above, with L24A, A93L counted along it
Description: as §1, §2
(§6) One of the aims of this study is to depict the molecular details of the interaction between the N-SH2 domain of PI3K and Gab2. […] To monitor binding by fluorescence, a dansyl group was added at the N-terminus of the peptide. The binding reaction was monitored by stopped-flow experiments following the change in FRET signal, taking advantage of the two Trp residues on the N-SH2 domain in positions 12 and 14 as fluorescence donor and the dansyl group on Gab2_448–460 as acceptor. […]
(§7) with kon being the slope of the line and koff the intercept with the y-axis. […] Kinetic parameters extracted from data together with the calculated changes in activation and equilibrium free energies are reported in Table 1. […]

[6] = biological target: T7, N-SH2 domain of PI3K, L99A variant (Homo sapiens, UniProt P27986, L420A); test: Stopped-flow binding kinetics, N-SH2 L99A
T7 construct: made in house
T7 sequence (P27986 333-428 L420A): as the sequence (P27986 333-428 L425A) above, with L88A, A93L counted along it
Description: as §1, §2, §6, §7

[7] = biological target: T8, N-SH2 domain of PI3K, V80A variant (Homo sapiens, UniProt P27986, V401A); test: Stopped-flow binding kinetics, N-SH2 V80A
T8 construct: made in house
T8 sequence (P27986 333-428 V401A): as the sequence (P27986 333-428 L425A) above, with V69A, A93L counted along it
Description: as §1, §2, §3, §4, §5

[8] = biological target: T9, N-SH2 domain of PI3K, T50S variant (Homo sapiens, UniProt P27986, T371S); test: Stopped-flow binding kinetics, N-SH2 T50S
T9 construct: made in house
T9 sequence (P27986 333-428 T371S): as the sequence (P27986 333-428 L425A) above, with T39S, A93L counted along it
Description: as §1, §2, §3, §4, §5

[9] = biological target: T10, N-SH2 domain of PI3K, V101A variant (Homo sapiens, UniProt P27986, V422A); test: Stopped-flow binding kinetics, N-SH2 V101A
T10 construct: made in house
T10 sequence (P27986 333-428 V422A): as the sequence (P27986 333-428 L425A) above, with V90A, A93L counted along it
Description: as §1, §2, §3, §4, §5

[10] = biological target: T11, N-SH2 domain of PI3K, T48S variant (Homo sapiens, UniProt P27986, T369S); test: Stopped-flow binding kinetics, N-SH2 T48S
T11 construct: made in house
T11 sequence (P27986 333-428 T369S): as the sequence (P27986 333-428 L425A) above, with T37S, A93L counted along it
Description: as §1, §2, §6, §7

[11] = stopped-flow FRET, 1 μM dansylated peptide, 50 mM Hepes pH 7.4, 300 mM NaCl
[12] = stopped-flow kinetics, pH 7.4, 300 mM NaCl
[13] = displacement experiment, pH 7.4, 300 mM NaCl

T1 sequence (P27986 333-428 V402A): as the sequence (P27986 333-428 L425A) above, with V70A, A93L counted along it

For `CSCC[C@H](NC(=O)[C@@H]1CCCN1C(=O)[C@@H](NC(=O)[C@H](Cc1ccc(OP(=O)(O)O)cc1)NC(=O)[C@H](CC(N)=O)NC(=O)[C@H](CC(=O)O)NC(=O)[C@H](CCC(=O)O)NC(=O)[C@H](CO)NC(=O)[C@H](CC(N)=O)NC(=O)[C@@H](N)[C@@H](C)O)C(C)C)C(=O)N[C@@H](CC(N)=O)C(=O)N1CCC[C@H]1C(=O)NCC(=O)O` [Gab2_448–460] (HELM PEPTIDE1{T.N.S.E.D.N.[O=C([C@H](Cc1ccc(OP(=O)(O)O)cc1)N[*:1])[*:2]].V.P.M.N.P.G}$$$$V2.0), the kon [1, 11] was 1.2e+07 ± 1.4e+06 M⁻¹ s⁻¹, the Kd [1, 12] was 400 ± 100 nM and the koff [2, 13] was 3.5 ± 0.2 s⁻¹. It also gave a kon [2, 11] of 1.65e+07 ± 200000 M⁻¹ s⁻¹, a Kd [2, 12] of 200 ± 100 nM and a koff [3, 13] of 7.4 ± 0.4 s⁻¹. It also gave a kon [3, 11] of 1.12e+07 ± 400000 M⁻¹ s⁻¹, a Kd [3, 12] of 700 ± 100 nM and a koff (N-SH2 domain of PI3K, WT; displacement of 1 μM complex by 50 μM non-dansylated Gab2_448–460, 50 mM Hepes pH 7.4, 300 mM NaCl) of 3.9 ± 0.2 s⁻¹. For the same compound, the Kd (N-SH2 domain of PI3K, WT; from stopped-flow kinetics, pH 7.4, 300 mM NaCl) was 200 ± 100 nM, the kon (N-SH2 domain of PI3K, WT; stopped-flow FRET, 1 μM dansylated peptide vs excess N-SH2, 50 mM Hepes pH 7.4, 300 mM NaCl, slope of kobs) was 1.95e+07 ± 1e+06 M⁻¹ s⁻¹ and the koff [4, 13] was 4.5 ± 0.2 s⁻¹. It also gave a kon [4, 11] of 2.44e+07 ± 1.7e+06 M⁻¹ s⁻¹, a Kd [4, 12] of 200 ± 100 nM and a koff [5, 13] of 6.7 ± 0.3 s⁻¹. For the same compound, the kon [5, 11] was 7e+06 ± 600000 M⁻¹ s⁻¹, the Kd [5, 12] was 1000 ± 100 nM and the koff [6, 13] was 160 ± 10 s⁻¹. The kon [6, 11] was 8.2e+06 ± 1.7e+06 M⁻¹ s⁻¹, the Kd [6, 12] was 20000 ± 200 nM and the koff [7, 13] was 4.4 ± 0.2 s⁻¹. For the same compound, the kon [7, 11] was 1.6e+07 ± 1.2e+06 M⁻¹ s⁻¹, the Kd [7, 12] was 300 ± 100 nM and the koff [8, 13] was 9.3 ± 0.5 s⁻¹. It also gave a kon [8, 11] of 1.56e+07 ± 800000 M⁻¹ s⁻¹, a Kd [8, 12] of 600 ± 100 nM and a koff [9, 13] of 7 ± 0.4 s⁻¹. It also gave a kon [9, 11] of 1.34e+07 ± 400000 M⁻¹ s⁻¹, a Kd [9, 12] of 500 ± 100 nM and a koff [10, 13] of 23 ± 1 s⁻¹. It also gave a kon [10, 11] of 6.4e+06 ± 500000 M⁻¹ s⁻¹ and a Kd [10, 12] of 3700 ± 100 nM.
